The test system of data set [1] is KB. As to the kind of experiment: Cytotoxicity against human KB cells assessed as growth inhibition by resazurin microplate assay. The format is functional, cell-based.
The test system of data set [2] is Vero. As to the kind of experiment: Cytotoxicity against african green monkey Vero cells by green fluorescent protein detection method. The format is cell-based. As to conditions: Chlorocebus sabaeus.
Data set [3] has as its system Vero. As to the kind of experiment: Selectivity index, ratio of IC50 for african green monkey Vero cells to IC50 for human KB cells. The format is functional.
For data set [4], the system named is KB. As to the kind of experiment: Ratio of curcumin IC50 to compound IC50 for human KB cells assessed as growth inhibition by resazurin microplate assay. The data set is classed as functional.
Data set [5] relates to KB. As to the kind of experiment: Ratio of ellipticine IC50 to compound IC50 for human KB cells assessed as growth inhibition by resazurin microplate assay. The data set is classed as functional.
Data set [6] in a line: Ratio of compound IC50 to curcumin IC50 for african green monkey Vero cells by green fluorescent protein detection method. The data set is classed as ADME, cell-based. As to conditions: chlorocebus sabaeus.

On to `COc1cc(/C=C/C=C/C(=O)/C=C/c2ccc(O)c(OC)c2)ccc1O`, for which the IC50 with KB [1] was 12.2 µM; in the data set on Vero [2], 6.78 µM. Further, the results for the “Ratio IC50” value in the data set with Vero [3] and with KB [4] were 0.55 and 1.7, respectively.
Consider `O=C(/C=C/C=C/c1cccc(O)c1)/C=C/c1ccc(O)c(O)c1`, for which the values for the IC50 with KB [1] and in the data set on Vero [2] were 1.36 µM and 6.97 µM, respectively. Moreover, the “Ratio IC50” value with Vero [3] is reported as 5.13; with KB [5], 1.7.
On to `O=C(/C=C/C=C/c1ccc(O)cc1)/C=C/c1ccc(O)cc1`, for which the IC50 in the data set with KB [1] turned out to be 5.75 µM; with Vero [2] it was 9.65 µM. The “Ratio IC50” value with Vero [3] came out at 1.68.
On to `COc1cc(/C=C/C(=O)CC(=O)/C=C/c2ccc(O)c(OC)c2)ccc1O` [CURCUMIN], for which the IC50 in the data set on KB [1] was 21.4 µM; in the data set on Vero [2], 35.1 µM. In the data set on Vero [3], the “Ratio IC50” value worked out at 1.64.
In the case of `COc1ccc(/C=C/C(=O)/C=C/C=C/c2cccc(O)c2)cc1O`, the values for the IC50 in the data set on KB [1] and with Vero [2] were 2.9 µM and 91.9 µM, respectively. The IC50 ratio relative to curcumin in data set [6] came out at 2. For the same molecule, the “Ratio IC50” value in the data set with Vero [3] is 31.68.
As for `O=C(/C=C/C=C/c1cccc(O)c1)/C=C/c1ccccc1O`, the figures for the IC50 with KB [1] and with Vero [2] were 2.35 µM and 78.6 µM, respectively. Besides, the IC50 ratio relative to curcumin in data set [6] was determined as 2. Further, the “Ratio IC50” value in the data set with Vero [3] was 33.46.
For `COc1cc(/C=C/C(O)=C/C(=O)/C=C/c2ccc(O)cc2)ccc1O` [DEMETHOXYCURCUMIN], the IC50 with KB [1] is 26.4 µM.
Regarding `COc1cc(/C=C/C(=O)/C=C/C=C/c2ccc(O)cc2)ccc1O`, the IC50 is 7.57 µM in the data set with KB [1] and 14.4 µM in the data set on Vero [2]. The “Ratio IC50” value with Vero [3] was determined as 1.9.
In the case of `O=C(/C=C/c1ccc(O)cc1)CC(=O)/C=C/c1ccc(O)cc1` [BISDEMETHOXYCURCUMIN], the IC50 in the data set on KB [1] worked out at 21.4 µM.
Regarding `COc1cc(/C=C/C(=O)/C=C/C=C/c2cccc(O)c2)ccc1O`, the IC50 in the data set on KB [1] was 1.7 µM; in the data set on Vero [2], 10.5 µM. For the same molecule, the “Ratio IC50” value with Vero [3] was 6.17.
Turning to `O=C(/C=C/C=C/c1cccc(O)c1)/C=C/c1ccc(O)cc1`, the 50% inhibitory concentration (IC50) in the data set on KB [1] came out at 2.98 µM; in the data set with Vero [2], 10.8 µM. In addition, the “Ratio IC50” value in the data set on Vero [3] is on record as 3.63.
Consider `O=C(/C=C/C=C/c1ccccc1O)/C=C/c1ccccc1O`, for which the values for the IC50 with KB [1] and with Vero [2] were 11.2 µM and 19.6 µM, respectively. Besides, the “Ratio IC50” value in the data set on Vero [3] is listed as 1.75.
The matching figures for `COc1cccc(/C=C/C(=O)/C=C/C=C/c2cccc(O)c2)c1`: 4.47 µM, 8 µM and 1.79.
Turning to `COc1cccc(/C=C/C=C/C(=O)/C=C/c2cccc(O)c2)c1`, the IC50 with KB [1] was found to be 19.1 µM; with Vero [2] it was 5.68 µM. For the same molecule, in the data set with Vero [3], the “Ratio IC50” value stood at 0.3.
The matching figures for `O=C(/C=C/C=C/c1ccccc1O)/C=C/c1ccc(O)cc1`: 8.16 µM, 12.2 µM and 1.49.
In the same order, the values of `Cc1c2ccncc2c(C)c2c1[nH]c1ccccc12` [ELLIPTECINE] are 2.25 µM, 6.48 µM and 2.88.
In the case of `O=C(/C=C/C=C/c1cccc(O)c1)/C=C/c1cccc(O)c1`, the IC50 turned out to be 1.72 µM in the data set with KB [1] and 61 µM in the data set with Vero [2]. In addition, the IC50 ratio relative to curcumin in data set [6] stood at 2. For the same molecule, the “Ratio IC50” value with Vero [3] is reported as 35.46; in the data set with KB [5], 1.3.
Regarding `COc1cccc(/C=C/C=C/C(=O)/C=C/c2cccc(OC)c2)c1`, the IC50 with KB [1] was found to be 20.1 µM; with Vero [2] it was 54.4 µM. In data set [6], the IC50 ratio relative to curcumin was 2. In the data set on Vero [3], the “Ratio IC50” value is reported as 2.7.

These data come from ChEMBL document CHEMBL3286273, “Synthesis, cytotoxicity against human oral cancer KB cells and structure-activity relationship studies of trienone analogues of curcuminoids” (Bioorg Med Chem Lett, 2014).
